Literature values in patent publication US20080038364A1, “Methods of processing body parts for surgery” (priority 2006, published 2008).
Where two headings read alike, the source gives them in different places.

Assays:
[1] = system: bacteria, viruses and other microorganisms; conditions: compared with chlorine

O=[O+][O-] [ozone]
half-life of ozone gas breaking down to oxygen: 20 min | disinfectant power relative to chlorine [1]: 10 times | CT for Virus Inactivation (virus organisms; 2.0 log inactivation, 5 °C): 0.6 CT units | CT for Virus Inactivation (virus organisms; 2.0 log inactivation, 10 °C): 0.5 CT units | CT for Virus Inactivation (virus organisms; 2.0 log inactivation, 15 °C): 0.3 CT units | CT for Virus Inactivation (virus organisms; 2.0 log inactivation, 20 °C): 0.25 CT units | CT for Virus Inactivation (virus organisms; 2.0 log inactivation, 25 °C): 0.15 CT units | CT for Virus Inactivation (virus organisms; 3.0 log inactivation, 5 °C): 0.9 CT units | CT for Virus Inactivation (virus organisms; 3.0 log inactivation, 10 °C): 0.8 CT units | CT for Virus Inactivation (virus organisms; 3.0 log inactivation, 15 °C): 0.5 CT units | CT for Virus Inactivation (virus organisms; 3.0 log inactivation, 20 °C): 0.4 CT units | CT for Virus Inactivation (virus organisms; 3.0 log inactivation, 25 °C): 0.25 CT units | CT for Virus Inactivation (virus organisms; 4.0 log inactivation, 5 °C): 1.2 CT units | CT for Virus Inactivation (virus organisms; 4.0 log inactivation, 10 °C): 1.0 CT units | CT for Virus Inactivation (virus organisms; 4.0 log inactivation, 15 °C): 0.6 CT units | CT for Virus Inactivation (virus organisms; 4.0 log inactivation, 20 °C): 0.5 CT units | CT for Virus Inactivation (virus organisms; 4.0 log inactivation, 25 °C): 0.3 CT units | CT for Giardia Inactivation (Giardia; 0.5 log inactivation, 5 °C): 0.32 CT units | CT for Giardia Inactivation (Giardia; 0.5 log inactivation, 10 °C): 0.23 CT units | CT for Giardia Inactivation (Giardia; 0.5 log inactivation, 15 °C): 0.16 CT units | CT for Giardia Inactivation (Giardia; 0.5 log inactivation, 20 °C): 0.12 CT units | CT for Giardia Inactivation (Giardia; 0.5 log inactivation, 25 °C): 0.08 CT units | CT for Giardia Inactivation (Giardia; 1.0 log inactivation, 5 °C): 0.63 CT units | CT for Giardia Inactivation (Giardia; 1.0 log inactivation, 10 °C): 0.48 CT units | CT for Giardia Inactivation (Giardia; 1.0 log inactivation, 15 °C): 0.32 CT units | CT for Giardia Inactivation (Giardia; 1.0 log inactivation, 20 °C): 0.24 CT units | CT for Giardia Inactivation (Giardia; 1.0 log inactivation, 25 °C): 0.16 CT units | CT for Giardia Inactivation (Giardia; 1.5 log inactivation, 5 °C): 0.95 CT units | CT for Giardia Inactivation (Giardia; 1.5 log inactivation, 10 °C): 0.72 CT units | CT for Giardia Inactivation (Giardia; 1.5 log inactivation, 15 °C): 0.48 CT units | CT for Giardia Inactivation (Giardia; 1.5 log inactivation, 20 °C): 0.36 CT units | CT for Giardia Inactivation (Giardia; 1.5 log inactivation, 25 °C): 0.24 CT units | CT for Giardia Inactivation (Giardia; 2.0 log inactivation, 5 °C): 1.3 CT units | CT for Giardia Inactivation (Giardia; 2.0 log inactivation, 10 °C): 0.95 CT units | CT for Giardia Inactivation (Giardia; 2.0 log inactivation, 15 °C): 0.63 CT units | CT for Giardia Inactivation (Giardia; 2.0 log inactivation, 20 °C): 0.48 CT units | CT for Giardia Inactivation (Giardia; 2.0 log inactivation, 25 °C): 0.32 CT units | CT for Giardia Inactivation (Giardia; 2.5 log inactivation, 5 °C): 1.6 CT units | CT for Giardia Inactivation (Giardia; 2.5 log inactivation, 10 °C): 1.2 CT units | CT for Giardia Inactivation (Giardia; 2.5 log inactivation, 15 °C): 0.79 CT units | CT for Giardia Inactivation (Giardia; 2.5 log inactivation, 20 °C): 0.60 CT units | CT for Giardia Inactivation (Giardia; 2.5 log inactivation, 25 °C): 0.40 CT units | CT for Giardia Inactivation (Giardia; 3.0 log inactivation, 5 °C): 1.9 CT units | CT for Giardia Inactivation (Giardia; 3.0 log inactivation, 10 °C): 1.4 CT units | CT for Giardia Inactivation (Giardia; 3.0 log inactivation, 15 °C): 0.95 CT units | CT for Giardia Inactivation (Giardia; 3.0 log inactivation, 20 °C): 0.72 CT units | CT for Giardia Inactivation (Giardia; 3.0 log inactivation, 25 °C): 0.48 CT units
